Measurements taken from ChEMBL document CHEMBL1148205, “Strongylophorine-26, a new meroditerpenoid isolated from the marine sponge Petrosia (Strongylophora) corticata that exhibits anti-invasion activity” (J Nat Prod, 2004).
In brackets after ≈: the same amount, converted by molar mass. Activity calls are given as the source filed them. No cut-off for these calls is given here.

Key:
Assay type in all cases: functional, cell-based
MDA-MB-231 [1] = experiment: Inhibition of human MDA-MB-231 cells invasion by Matrigel cell invasion assay
MDA-MB-231 [2] = experiment: Inhibition of human MDA-MB-231 cells invasion at <50 ug/mL by Matrigel cell invasion assay
MDA-MB-231 [3] = experiment: Inhibition of human MDA-MB-231 cells invasion at 2.5 ug/mL by Matrigel cell invasion assay

Row | Structure (SMILES) | IC50 (MDA-MB-231 [1]) [µg/mL] | Activity (MDA-MB-231 [2]) | Activity (MDA-MB-231 [3])
1 | C[C@@]12CC[C@@H]3[C@]4(CCC[C@]3(C)C(=O)OC4)[C@H]1CC[C@](C)(O)[C@H]2CC1=CC(=O)C=CC1=O | 7 (≈ 16.4 µM) | – | –
2 | C=C1CCC[C@H]2[C@](C)(CC3=C(O)C(=O)C=C(OC)C3=O)[C@@H](C)CC[C@]12C | – | inactive | –
3 | NCCCNCCCN1CCCC/C=C\CCCCCCCC1 [MOTUPORAMINE C] | 0.3 (≈ 0.927 µM) | – | –
4 | C[C@@]12CC[C@@H]3[C@]4(CCC[C@]3(C)C(=O)OC4)[C@H]1CC[C@](C)(O)[C@H]2Cc1cc(O)ccc1O [strongylophorine-8] | 7 (≈ 16.3 µM) | – | –
5 | COC1=CC(=O)C=C(C[C@H]2[C@]3(C)CC[C@@H]4[C@]5(CCC[C@]4(C)C(=O)OC5)[C@H]3CC[C@]2(C)O)C1=O [strongylophorine-26] | 1 (≈ 2.19 µM) | – | Active
